# In US7393939B2, “Placental organic anion transporter and gene thereof” (Japan Science and Technology Corporation, priority 1999, dated 2008):
# Entries after “also recorded” stand apart in the source; their conditions may differ. Where a name gives a salt, the structure may show the parent alone. Read-outs that look alike come from different tables or passages of the source.
# Tests used:
# Format in all cases: cell-based
# [1] = target: T1, OAT4 (Homo sapiens, UniProt Q9NSA0); assay: Inhibition experiment: ^3H-estrone sulfate uptake in OAT4 cRNA-injected oocytes with various compounds; settings: 50 nM ^3H-estrone sulfate; 500 μM unlabeled compound; FIG. 4
# T1 construct: cRNA (an RNA complementary to cDNA) was prepared from a plasmid containing this cDNA; expressed in transfected cells; host or cells: Xenopus laevis oocytes injected with OAT4 cRNA (transcribed in vitro with T7 RNA polymerase from plasmid pZL holding the hOAT4 cDNA)
# T1 sequence (Q9NSA0 1-550): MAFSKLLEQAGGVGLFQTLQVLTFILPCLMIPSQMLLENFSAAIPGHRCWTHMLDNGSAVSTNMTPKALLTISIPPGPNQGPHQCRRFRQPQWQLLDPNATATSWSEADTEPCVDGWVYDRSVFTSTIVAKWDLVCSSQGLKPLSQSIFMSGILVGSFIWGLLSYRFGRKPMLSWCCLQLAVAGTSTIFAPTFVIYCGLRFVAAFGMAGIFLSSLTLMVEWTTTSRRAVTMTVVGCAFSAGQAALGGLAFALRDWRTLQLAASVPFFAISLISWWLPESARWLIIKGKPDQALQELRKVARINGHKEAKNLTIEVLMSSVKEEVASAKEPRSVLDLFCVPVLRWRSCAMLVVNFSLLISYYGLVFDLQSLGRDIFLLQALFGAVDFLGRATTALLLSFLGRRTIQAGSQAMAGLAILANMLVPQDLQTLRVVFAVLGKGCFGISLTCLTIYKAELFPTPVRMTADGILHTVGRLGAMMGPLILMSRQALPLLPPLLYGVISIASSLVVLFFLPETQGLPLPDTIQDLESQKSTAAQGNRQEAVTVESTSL
# Method: Further, in order to investigate the substrate selectivity of OAT4 of the present invention, various ionic substances were added to an incorporation experimental system of ^3H-estrone sulfate and the influence thereby was tested (Inhibition Experiment).
# In order to further investigate the substrate selectivity of OAT4, various anionic substances were added to a system in an uptake experiment system of ^3H-estrone sulfate in oocytes into which OAT4 cRNA was injected and the influence was investigated (inhibition experiment). An uptake experiment of ^3H-estrone sulfate was carried out according to the above-mentioned method using oocytes into which OAT4 cRNA was injected. Uptake of 50 nM ^3H-estrone sulfate was measured in the presence and absence of 500 μM of various compounds (unlabeled).
# [2] = target: T1, OAT4; assay: Inhibitory test of OAT4 by sulfate conjugates and glucuronic acid conjugates; settings: FIG. 5
# [3] = target: T1, OAT4
# Method: In order to confirm that the resulting OTA4 has an organic anion transport activity, cRNA (an RNA complementary to cDNA) was prepared from a plasmid containing this cDNA according to a method of Sekine, et al. (Sekine, T., et al., J. Biol. Chem., volume 272, pages 18526-18529, 1997) and injected into oocytes of Xenopus laevis and the oocytes were subjected to an incorporation experiment for various organic anions and organic cations which were labeled with radioisotopes.
# From an OAT4 cDNA-containing plasmid was prepared cRNA (an RNA complementary to cDNA) in vitro using a T7 RNA polymerase (Sekine, T., et al., J. Biol. Chem., volume 272, pages 18526-18529, 1997).
# The resulting cRNA was injected into oocytes of Xenopus laevis according to the already-reported method (Sekine, T., et al., J. Biol. Chem., volume 272, pages 18526-18529, 1997) and the oocytes were subjected to an incorporation experiment using various labeled organic anions and organic cations.
# [4] = target: T1, OAT4; assay: Cation (sodium) dependency of estrone sulfate transport via OAT4 in oocytes; settings: extracellular sodium substituted with lithium and choline; FIG. 3
# Method: Dependency of the OAT4 of the present invention on sodium in an organic anion transport was investigated. Incorporation of estrone sulfate by OAT4 was tested in the presence of various extracellular cations.
# Sodium-dependency of OAT4 in an organic anion transport was investigated. Even when extracellular sodium was substituted with lithium and choline, there was no change in the transport of estrone sulfate via OAT4 and it was clarified that OAT4 is an organic anion transporter which is independent on extracellular sodium (refer to FIG. 3).
# [5] = target: T1, OAT4; assay: Michaelis-Menten kinetic test of organic anion transport by OAT4 in oocytes injected with OAT4 cRNA; settings: FIG. 2
# Method: After that, the above-mentioned oocytes into which OAT4 cRNA was injected was used for checking the changes in the amount of estrone sulfate, dehydroepiandrosterone sulfate and ochratoxin A incorporated by OAT4 of the present invention at various concentrations whereby a Michaelis-Menten dynamic test for an organic anion transport was carried out.
# A Michaelis-Menten dynamic test was carried out for an organic anion transport of OAT4. Changes in the uptake amount of various concentrations of estrone sulfate and dehydroepiandrosterone sulfate by OAT4 were tested whereby concentration dependency of those substrates by OAT4 was investigated. The uptake experiment of labeled estrone sulfate and dehydroepiandrosterone sulfate was carried out according to the above-mentioned method using oocytes into which OAT4 cRNA was injected.
Compound,inhibition of transport of ^3H-estrone sulfate by OAT4 [1],other results
O=C1OC(c2ccc(O)c(S(=O)(=O)O)c2)(c2ccc(O)c(S(=O)(=O)O)c2)c2c(Br)c(Br)c(Br)c(Br)c21 [bromosulfophthalein],significantly inhibited,
CCCCNc1cc(C(=O)O)cc(S(N)(=O)=O)c1Oc1ccccc1 [bumetanide],significantly inhibited,
C[C@H](CCC(=O)O)[C@H]1CC[C@H]2[C@@H]3[C@H](O)C[C@@H]4C[C@H](O)CC[C@]4(C)[C@H]3C[C@H](O)[C@]12C [cholic acid],significantly inhibited,
O=C(O)Cc1ccccc1Nc1c(Cl)cccc1Cl [diclofenac],significantly inhibited,
CC(C)Cc1ccc(C(C)C(=O)O)cc1 (stereo not drawn) [ibuprofen],significantly inhibited,
COc1ccc2c(c1)c(CC(=O)O)c(C)n2C(=O)c1ccc(Cl)cc1 [indomethacin],significantly inhibited,
Nc1cc(N2CCCCC2)nc(N)[n+]1OS(=O)(=O)[O-] [minoxidil sulfate],,interaction with OAT4 (inhibitory test) [2]: all sulfate conjugates except minoxidil sulfate showed an interaction
C[C@@H]1Cc2c(Cl)cc(C(=O)N[C@@H](Cc3ccccc3)C(=O)O)c(O)c2C(=O)O1 [ochratoxin A],,"incorporation (uptake) by oocytes expressing OAT4 ([3]; Xenopus laevis oocytes injected with OAT4 cRNA, radiolabeled substrate, FIG. 1, listed as 3H-ochratoxin A): incorporated; also recorded: showed incorporation"
CC1(C)S[C@@H]2[C@H](NC(=O)Cc3ccccc3)C(=O)N2[C@H]1C(=O)O [penicillin G],significantly inhibited,
CCCN(CCC)S(=O)(=O)c1ccc(C(=O)O)cc1 [probenecid],significantly inhibited,
C[C@H](CCC(=O)NCCS(=O)(=O)O)[C@H]1CC[C@H]2[C@@H]3[C@H](O)C[C@@H]4C[C@H](O)CC[C@]4(C)[C@H]3C[C@H](O)[C@]12C [taurocholic acid],significantly inhibited,
CC[N+](CC)(CC)CC [tetraethylammonium],did not show an inhibiting action; also recorded: did not show any inhibiting action,incorporation (uptake) by oocytes expressing OAT4 [3]: no incorporation was noted
O=C(O)[C@H]1O[C@@H](Oc2cccc3ccccc23)[C@H](O)[C@@H](O)[C@@H]1O [α-naphthyl-β-glucuronide],,interaction with OAT4 (inhibitory test) [2]: only a weak interaction with OAT4 except α-naphthyl-β-glucuronide
dehydroepiandrosterone sulfate,,"incorporation (uptake) by oocytes expressing OAT4 ([3]; Xenopus laevis oocytes injected with OAT4 cRNA, radiolabeled substrate, FIG. 1, listed as 3H-dehydroepiandrosterone sulfate): incorporated; also recorded: showed incorporation"
estrone sulfate,,"incorporation (uptake) by oocytes expressing OAT4 ([3]; Xenopus laevis oocytes injected with OAT4 cRNA, radiolabeled substrate, FIG. 1, listed as 3H-estrone sulfate): incorporated; also recorded: showed incorporation; change in transport of estrone sulfate via OAT4 on cation substitution [4]: no change; Km [5]: 1.01 ± 0.15 µM"
